# Laboratory results published in patent publication US20040220084A1, “Methods for nucleic acid delivery” (priority 2003, published 2004).
# What was measured:
# JJ5 Breast Cancer cells [1] = assay: Growth inhibition assay against JJ5 breast cancer cells; assay type: cell-based, human; conditions: 4 days culture
# Method: JJ5 breast cancer cells (prepared from BCBM JJ5) expressing approximately 10^6 epidermal growth factor receptors/cell were incubated with EGF-^111In-labeled transferrin composition, unlabeled hEGF or ^111In-oxine, centrifuged to remove free ligand, then assayed and seeded (10^6 cells/dish) into 35 mm culture dishes. Growth medium was added and the cells were cultured at 37° C./5% CO^2 for 4 days. The cells were then recovered by trypsinization and counted in a hemocytometer. Control dishes contained cells cultured in growth medium containing ^111In-DTPA or growth medium alone.
# JJ5 Breast Cancer cells [2] = assay: Cytotoxicity (colony-forming) assay against JJ5 breast cancer cells; assay type: cell-based, human; conditions: 14 days
# Method: JJ5 breast cancer cells were incubated with increasing amounts EGF-^111In-labeled transferrin composition or ^111In-oxine, centrifuged to remove free ligand, assayed and then seeded into 50 mm culture dishes. The number of cells seeded was varied from 3×10^4 to 3×10^6 cells to obtain approximately 400 viable colonies/dish taking into account the plating efficiency and the expected level of cytotoxicity. Control dishes contained JJ5 breast cancer cells which were incubated with normal saline. Growth medium was added and the cells were cultured at 37° C./5% CO^2 for 14 days. The growth medium was removed and the colonies were stained with methylene blue (1% in a 1:1 mixture of ethanol and water) then washed twice. The number of colonies per dish was counted using a manual colony counter (Manostat Corp). The plating efficiency was calculated by dividing the number of colonies observed by the number of cells seeded in each dish. The surviving fraction at increasing amounts of EGF-^111In-labeled transferrin composition or ^111In-oxine was calculated by dividing the plating efficiency for dishes containing treated cells with that observed for control dishes with normal saline.
# JJ5 Breast Cancer cells [3] = assay: Binding of EGF-111In-labeled transferrin composition to JJ5 breast cancer cells (radioligand binding, kinetics, internalization); design: species or system human
# Method: For the normal breast cell line HBL-100, 8000 EGFR/cell has been reported. The expression of EGFR in breast cancer cell lines has a reported range of 800 EGFR/cell for MCF-7 cells to 10^6 EGFR/cell for MDA-MB-468 cells. […] Utilizing the Auger electron emitter ^111In was used in the initial experiments to illustrate the utility of the invention using EGF-111In-labeled transferrin compositions. The EGF-^111-In-labeled transferrin (0.25-80 ng) was incubated with 1.5×10^6 cells/dish JJ5 Breast Cancer (prepared from BCBM JJ5) cells in 1 mL of 0.1% human serum albumin in 35 mm multiwell culture dishes at 37° C. for 30 minutes. The cells were transferred to a centrifuge tube and centrifuged. The cell pellet was separated from the supernatant and counted in a g-scintillation counter to determine bound (B) and free (F) radioactivity. Non-specific binding was determined by conducting the assay in 100 nM hEGF. The kinetics of binding was determined by incubating 1 ng of EGF-^111In-labeled transferrin composition with 3×10^6 JJ5 Breast Cancer cells at 37° C. and determining the proportion of radioactivity bound to the cells at various times up to 24 hours. Internalized fraction was measured by determining the proportion of radioactivity which could not be displaced from the cell surface by 100 nM hEGF. Cell-associated binding (surface-binding and intracellular accumulation) was expressed as a percentage of medium radioactivity bound per mg of cell study protein.
Compound,growth inhibition of the JJ5 cells (JJ5 Breast Cancer cells [1]; 3.5 pCi/cell) [%],cell killing (JJ5 Breast Cancer cells [2]; <6 pCi/cell),internalization by cancer cells (in words) (JJ5 Breast Cancer cells [3]; JJ5 cells),"binding by the breast cancer cells (kinetics, in words) (JJ5 Breast Cancer cells [3]; JJ5 cells, 37° C.)","retained by the breast cancer cells (JJ5 Breast Cancer cells [3]; JJ5 cells, 37° C.)","affinity constant for binding to JJ5 cells (JJ5 Breast Cancer cells [3]; JJ5 cells, 37° C., 30 minutes) [L/mol]",111In radioactivity lost from the cells in vitro (JJ5 Breast Cancer cells [3]; over a 24 hour period at 37° C.) [%],growth inhibition of the JJ5 cells compared to the medium control (JJ5 Breast Cancer cells [1]; 3.4 pCi/cell) [%],reduction in cell survival for JJ5 cells (JJ5 Breast Cancer cells [2]; 8 pCi/cell) [%]
"[In+3].[O-]c1cccc2cccnc12.[O-]c1cccc2cccnc12.[O-]c1cccc2cccnc12 [^111In-oxine, reference compound]",91,greater than 99%,,,,,,,
EGF-^111In-labeled transferrin composition: human EGF linked to human transferrin radiolabeled with Auger electron emitter 111In at the iron-binding sites,,,rapidly internalized,rapidly bound,at least 24 hours,8e+08,< 8,83,99
